{Lys} = L-lysine residue attached to the PNA terminus
Tests used:
[1] = tested on: Cas9 RNP, ZSCAN2 sgRNA, ZSCAN2 ON site; assay: ZSCAN2 on-target editing in K562 cells (amplicon sequencing); format: cell-based, human; conditions: PNA pre-treatment 2 hours before Cas9 RNP (FIG. 10A: 50 pmol PNA)
Experimental: (§1) For Cas9 RNP assembly, 50 pmol of sgRNA (IDT, Alt-R CRISPR-Cas9 sgRNA) and 45 pmol of SpCas9 (CPO2, PNA BIO) were incubated at room temperature for 10 minutes in a 5 μL reaction in 1×3.1 Buffer (B7203S, NEB). For nucleofections, 1×10^6 cells, 5 μL Cas9 RNP, and 1 μL of Alt-R Cas9 electroporation enhancer (IDT) were resuspended in 100 μL of Lonza cell line solution (V4XC-2024/V4XC-1024, Lonza) and nucleofected using a Lonza 4D-Nucleofector X unit. Cas9 RNP treated cells were seeded in 2 mL of complete media and incubated for 96 hours prior to harvesting for analysis.
(§2) For PNA pre-treatments, 1×10^6 cells and 1 μL of PNA diluted to desired concentration in water were similarly nucleofected using Lonza cell line kits and 4D-Nucleofector. PNA nucleofected cells were resuspended in 1.25 mL of complete media in 1.5 mL tubes and incubated at 37° C. for 2 hours before Cas9 RNP nucleofection as described above. […]
(§3) Genomic DNA was purified from 0.5×10^6 cells using Promega ReliaPrep gDNA Tissue Miniprep System (A2052) and eluted in 50 μL of water. […] FASTQ reads were subjected to quality analysis (Basespace FASTQC) and analyzed for indel frequency using Cas-Analyzer assessment tool (parameters: Comparison range (R)—both ends of full amplicon sequence, Minimum frequency (n)=1). gRNAs used in this study are listed in Table 8, amplicon genomic coordinates listed in Table 9.

[2] = tested on: Cas9 RNP, ZSCAN2 sgRNA, ZSCAN2 off-target site; assay: ZSCAN2 off-target editing in K562 cells (amplicon sequencing); format: cell-based, human; conditions: PNA pre-treatment 2 hours before Cas9 RNP (FIG. 10A: 50 pmol PNA)
Experimental: as §1, §2, §3

[3] = tested on: Cas9 RNP (FANCF, EMX1, ZSCAN2, CCR5, VEGFA gRNAs); assay: On-target specificity of Cas9 RNP (ratio of on-target to off-target editing rates); format: cell-based, human
Experimental: (§4) For PNA pre-treatments, 1×10^6 cells and 1 μL of PNA diluted to desired concentration in water were similarly nucleofected using Lonza cell line kits and 4D-Nucleofector. PNA nucleofected cells were resuspended in 1.25 mL of complete media in 1.5 mL tubes and incubated at 37° C. for 2 hours before Cas9 RNP nucleofection as described above. After Cas9 RNP nucleofection cells were seeded in 2 mL of complete media and incubated for 96 hours prior to harvesting and analysis.
(§5) Genomic DNA was purified from 0.5×10^6 cells using Promega ReliaPrep gDNA Tissue Miniprep System (A2052) and eluted in 50 μL of water. Library prep used 100 ng of gDNA input with Ampliseq for Illumina Library Plus kit (20019101, Illumina) and used a custom primer pool designed to amplify a designed panel of genomic targets of interest (Table 9). Libraries were indexed, pooled, and loaded onto a Mid-output (300-cycles, Illumina, FC-420-1004) cartridge for paired-end sequencing on an Illumina Miniseq instrument. FASTQ reads were subjected to quality analysis (Basespace FASTQC) and analyzed for indel frequency using Cas-Analyzer assessment tool (parameters: Comparison range (R)—both ends of full amplicon sequence, Minimum frequency (n)=1). gRNAs used in this study are listed in Table 8, amplicon genomic coordinates listed in Table 9.
In the case of EMX1 ON and OFF target amplicons, both regions were amplified from 200 ng of purified gDNA by Phusion High-Fidelity Polymerase (NEB, M0530S) and pooled and purified using QIAGEN PCR purification kit (28104, Qiagen). Library prep used 200 ng of purified amplicon input with Illumina DNA Prep kit (20025519, Illumina). EMX1 libraries were similarly indexed, pooled, sequenced, and analysed as above.
For pre-annealed PAM-distal PNA experiments, 50 pmol of sgRNA and 50 pmol of PAM-distal 10mer PNAs were incubated in a thermocycler at 37° C. for 30 minutes in a 5 μL reaction in 1×3.1 Buffer (B7203S, NEB) to allow annealing. PNA annealing to sgRNAs was confirmed by gel shift on 5% polyacrylamide gel. 45 pmol of SpCas9 (CP02, PNA BIO) was then added at room temperature and incubated for 10 minutes to allow RNP formation. Resulting reaction was delivered to 1×10^6 K562 cells by a single nucleofection and treated as described above.

[4] = tested on: Cas9 RNP, FANCF sgRNA, FANCF ON site; assay: FANCF on-target editing in K562 cells (amplicon sequencing); format: cell-based, human
Experimental: as §1, with “analysis. […]” for “analysis.”
as §3
(§6) 10^6 K562 cells were nucleofected (Lonza 4D Nucleofector) with specified dose (0-150 pmol) of FANCF PAM-distal 10mer PNA. […] Sequencing data was analyzed for indel frequency using a validated Cas-Analyzer tool (Park, et al., Bioinformatics 33, 286-288 (2017)).

[5] = tested on: Cas9 RNP, FANCF sgRNA, FANCF OT1 site; assay: FANCF off-target editing in K562 cells (amplicon sequencing); format: cell-based, human
Experimental: as §1, §4
as §5, with “Libraries were indexed, pooled, and loaded onto a Mid-output (300-cycles, Illumina, FC-420-1004) cartridge for paired-end sequencing on an Illumina Miniseq instrument.” left out
as §6

[6] = tested on: Cas9 RNP using a sgRNA targeted to the BFP gene; assay: Cas9 RNP editing of BFP reporter gene in K562-BFP cells (BFP fluorescent drop out, flow cytometry); format: cell-based, human
Experimental: as §1, §4
K562 cells were spun down and resuspended in fresh complete media at 300,000 cells/mL 48 hours prior to analysis. Samples for flow cytometry were fixed in complete media with 1% formaldehyde for 15 minutes before spinning down, resuspending in 300 μL PBS, and filtering through a cell strainer capped tube. Samples were analyzed for BFP and GFP fluorescence using a Cytoflex LX instrument (Beckman Coulter) using PacificBlue and FITC lasers, respectively, and quantification and gating was done using FloJo v10 software. Background fluorescent drop out was determined by measurement of mock nucleofected lines in quadruplicate and subtracted from experimental values to determine reported editing frequency.
10^6 stable BFP-expressing K562 cells were nucleofected (Lonza 4D Nucleofector) with a specified dose of PNA or ssDNA oligo (0-250 pmol). Two hours later, all conditions were nucleofected with 45 pmol of purified Cas9 RNP using a sgRNA targeted to the BFP gene. 72 hours later, cells with BFP fluorescent drop out (via Cas9 indel formation) were quantified by flow cytometry (Beckman Coulter—Cytoflex instrument).
In time-course experiments in FIG. 3D, K562 samples were nucleofected with 5 μL RNP reactions with the addition of 100 pmol of ssODN donor in 1 μL of water. RNP nucleofected samples were incubated at 37° C. in complete media before being spun down and nucleofected with 250 pmol of PNA at specified time points. After PNA delivery cells were seeded in 2 mL of complete media and incubated for 96 hours prior to harvesting and analysis.
10^6 stable BFP-expressing K562 cells were nucleofected (Lonza 4D Nucleofector) with specified dose (0-250 pmol, or 250 pmol if unspecified) of specified PNA with sequences homologous to (antispacer) or identical to (cis-spacer) the BFP gRNA spacer sequence. Two hours later, all conditions were nucleofected with 45 pmol of purified Cas9 RNP using a sgRNA targeted to the BFP gene. 72 hours later, cells with BFP fluorescent drop out (via Cas9 indel formation) were quantified by flow cytometry (Beckman Coulter—Cytoflex instrument).
10^6 stable BFP-expressing K562 cells were nucleofected (Lonza 4D Nucleofector) with 45 pmol of purified Cas9 RNP using a sgRNA targeted to the BFP gene. At each specified time point 250 pmol of BFP Anti-protospacer PNA were introduced via nucleofection. For “Cas9 only” condition there was no second PNA nucleofection and for “0 hrs” 250 pmol of PNA was co-nucleofected with Cas9 in a single reaction. After each nucleofection samples were left in fresh media for the duration of the experiment to acquire edits. 72 hours after the “24 hrs” nucleofection, cells for all conditions with BFP fluorescent drop out (via Cas9 indel formation) were quantified by flow cytometry (Beckman Coulter—Cytoflex instrument).

[7] = tested on: 20mer RNA oligonucleotide (spacer sequence designed to target the BFP gene); assay: UV spectroscopy thermal melting analysis of duplexes; format: binding; conditions: 1 μM each strand, 10 mM sodium phosphate buffer pH 7.4
Experimental: All samples were prepared by mixing a stoichiometric amount of each strand (1 μM) in 10 mM sodium phosphate buffer at pH 7.4 (Table 8). The samples were pre-annealed at 95° C. for 5 mins and gradually cooled to room temperature prior to the melting experiment. UV melting experiments were performed using a Shimadzu UV-3600 Plus UV-Vis-NIR spectrophotometer equipped with a thermoelectrically controlled multicell holder. UV melting spectra were recorded after every 1° C. temperature change by monitoring the absorbance at 260 nm from 20° C. to 110° C. to 20° C., with a heating/cooling ramp rate of 1.0° C./min. The heating and cooling curves were overlapped to confirm reversible denaturation. All spectra were plotted on Origin 2020 and smoothed using a 20-point adjacent averaging algorithm. The first derivative plots of the melting curves were generated to determine the melting temperature for each duplex.

[8] = tested on: HBB sgRNA and HBB Cas9 RNP; assay: sgRNA binding assay (EMSA) with TAMRA dye-labeled PNA, HBB target; conditions: heterologous spacer sequence (HBB target)
Experimental: (§7) 10 pmol of BFP or HBB sgRNA were incubated with or without 10 pmol of purified Cas9 (Sigma) in 20 μL of 1×NEB buffer 3.1 for 15 minutes at room temp. Then, specified doses of a TAMRA dye labeled antispacer BFP ssPNA was added to each reaction and tubes were incubated in thermocycler for 30 minutes at 37C. 5 μL of resulting reactions were run on pre-cast 5% polyacrylamide TBE gels (BIORAD). The gel was washed in 1×TBE buffer and imaged for TAMRA signal using a Gel Doc XR+ gel imager system (BIORAD). Gel was then incubated in 1×SYBR Gold in TBE for 5 minutes, washed in 1×TBE, and imaged for nucleic acid staining on Gel Doc XR+ imager. Resulting images were superimposed using ImageJ.

[9] = tested on: BFP sgRNA and BFP Cas9 RNP; assay: sgRNA binding assay (EMSA) with TAMRA dye-labeled PNA, BFP target
Experimental: as §7

[10] = tested on: Cas9 RNP, CCR5 R30 sgRNA, CCR2 off-target site; assay: CCR5 gRNA off-target editing in the CCR2 gene in K562 cells (amplicon sequencing); format: cell-based, human; conditions: PNA pre-treatment 2 hours before Cas9 RNP (FIG. 10A: 50 pmol PNA)
Experimental: as §1, §2, §3

[11] = tested on: Cas9 RNP, CCR5 R30 sgRNA, CCR5 ON site; assay: CCR5 on-target editing in K562 cells (amplicon sequencing); format: cell-based, human; conditions: PNA pre-treatment 2 hours before Cas9 RNP (FIG. 10A: 50 pmol PNA)
Experimental: as §1, §2, §3

For “CTTGCCGCAC (all peptide nucleic acid (PNA); further chemistry not fully specified) [ZSCAN PAMdist 10 mer PNA, 1 Lysine (K) on either end]”, the “decrease of on-target editing” value [1] was 80.3%, the “decrease of off-target editing” value [2] was 66.3% and the “overall increase in specificity” value ([3]; K562 cells, PNA pre-treatment) was “not observed”.
For “K-CTTCTGCAGC-K (all peptide nucleic acid (PNA), 5' {Lys}, 3' {Lys}) [FANCF PAM-Distal 10 mer PNA]”, the on-target editing ([4]; 50 pmol PNA (98.0% without PNA)) was 93.2%, the “reduction of on-target editing” value ([4]; 50 pmol, 1:1 PNA:sgRNA ratio) was 4.9% and the “difference in editing reduction, off-target versus on-target” value ([5]; 50 pmol) was 11.6 fold. For the same substance, the off-target editing ([5]; 50 pmol PNA (7.13% without PNA)) was 3.07%, the “reduction of off-target editing” value ([5]; 50 pmol, 1:1 PNA:sgRNA ratio, compared to Cas9 RNP only) was 57.1% and the “specificity ratio versus Cas9 only” value ([3]; K562, HEK293, and U2OS cell lines, PNA pre-treatment prior to Cas9 RNP nucleofection) was “significantly increased specificity ratios”. For the same substance, the “specificity versus pre-treatment approaches” value ([3]; PNA pre-annealed to sgRNA prior to Cas9 RNP formation, delivered as a single complex, K562) was “further improved specificity”.
For “KKK-ATGGCGTGCAGTGCTTCAGC-KKK (all peptide nucleic acid (PNA), 5' {Lys}-{Lys}-{Lys}, 3' {Lys}-{Lys}-{Lys}) [BFP Antispacer PNA]”, the “inhibitory effect on Cas9-mediated BFP gene disruption and indel formation” value ([6]; 0-250 pmol nucleofected 2 hours prior to Cas9 RNP) was “robust dose-dependent inhibitory effect”, the “block of indel formation (NHEJ) and template-mediated editing (HDR) when PNA is introduced after Cas9 RNP” value ([6]; 250 pmol PNA at time-points up to 24 hours after Cas9 RNP/ssODN nucleofection) was “rapidly and proportionally block both indel formation (NHEJ) and template-mediated editing (HDR)” and the “Tm of duplex with RNA spacer sequence” value [7] was over 100 °C.
In the case of “TAMRA-KKK-ATGGCGTGCAGTGCTTCAGC-KKK (all peptide nucleic acid (PNA); N-terminal TAMRA dye, three lysines flank each end) [TAMRA BFP Antispacer PNA, TAMRA dye conjugated at N-terminus]”, the “PNA-TAMRA signal co-localization with sgRNA and RNP bands” value [8] is reported as “not”, the “additional binding at 20 pmol (2×) doses compared to 10 pmol” value ([9]; 10 pmol sgRNA, 10 pmol Cas9) is reported as “no significant additional binding” and the “increase in PNA binding (TAMRA-Cas9 RNP gel bands) between 5 pmol (0.5×) and 10 pmol (1×) conditions” value ([9]; 10 pmol sgRNA, 10 pmol Cas9) is reported as 2.09 fold. For the same substance, the “PNA-TAMRA signal co-localization with sgRNA and RNP bands” value ([9]; sequence-matched (BFP target)) was “strongly co-localized”.
In the case of “TCCGCTCTAC (all peptide nucleic acid (PNA); further chemistry not fully specified) [CCR5 PAMdist 10 mer PNA, 1 Lysine (K) on either end]”, the “off-target editing in the CCR2 gene” value [10] is reported as “undetectable” and the “decrease of on-target editing” value [11] is reported as 79.1%.

From patent publication US20240279687A1, “PEPTIDE NUCLEIC ACIDS FOR SPATIOTEMPORAL CONTROL OF CRISPR-CAS BINDING” (Yale University, priority 2021, published 2024)
